# Data from patent US12419874B2, “GLP-1R agonist compound and use thereof” (Chongqing Pharmaceutical Research Institute Co., Ltd., priority 2024, dated 2025).
# Target: GLP-1R (Homo sapiens, UniProt P43220)
# Experiment: GLP-1R agonistic activity by One-Lite luciferase assay in HEK293-GLP-1R-luc cells (Example 59)
# Type: cell-based
# Conditions: 6 h incubation, read-out: cAMP EC50
# Method: The agonistic activities of the compounds of the present disclosure on GLP-1R were evaluated by detecting the generation of cAMP.
# • (1) Cell line: HEK293-GLP-1R-luc Stable Cell Line (Cobioer, CBP71117); • (2) Culture medium: DMEM+10% FBS (Gibco); • (3) Kit: One-Lite™ kit Luciferase Assay System (Vazyme). 2. Experimental Procedures • (1) HEK293-GLP1R cells were inoculated in a 96-well plate at a density of 30000 cells per well; • (2) 10× working solution of each compound was formulated; • (3) 10 μL of 10× working solution of each compound was added to corresponding well and incubated at 37° C. for 6 h; • (4) 100 μL of One-Lite Luciferase Assay Substrate formulated using One-Lite Luciferase Assay Buffer was added to each well; • (5) The plate was incubated at room temperature for 3 min; • (6) The plate was read by a multimode microplate reader to detect chemiluminescence. 3. Data Analysis • (1) % Activity was calculated by the following formula: % Activity=100−(Signalcmpd−SignalAve-PC)/(SignalAve-VC−SignalAve-PC)×100 • (2) The dose-response curve was plotted to calculate EC50: Y=Bottom+(Top−Bottom)/(1+10^(Log EC50−X)*HillSlope)) • X: log of agonist concentration; Y: Activity. 4. Experimental Results
# GLP-1R, sequence (P43220 24-463): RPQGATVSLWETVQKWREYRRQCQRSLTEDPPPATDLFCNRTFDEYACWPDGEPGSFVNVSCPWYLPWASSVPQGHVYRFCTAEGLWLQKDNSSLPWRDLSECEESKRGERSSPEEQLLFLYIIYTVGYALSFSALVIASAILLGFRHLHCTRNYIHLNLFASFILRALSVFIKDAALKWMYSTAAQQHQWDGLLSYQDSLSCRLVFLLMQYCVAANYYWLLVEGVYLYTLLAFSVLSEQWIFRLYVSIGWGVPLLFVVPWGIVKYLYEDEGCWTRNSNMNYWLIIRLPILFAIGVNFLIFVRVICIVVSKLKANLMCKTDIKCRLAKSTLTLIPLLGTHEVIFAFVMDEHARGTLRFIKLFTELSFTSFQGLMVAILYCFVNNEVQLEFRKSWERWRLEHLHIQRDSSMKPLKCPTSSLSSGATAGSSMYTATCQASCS
row,SMILES,EC50
1,Cc1cc(-n2nc3c(c2-n2ccn(-c4ccc5c(cnn5C)c4F)c2=O)[C@H](C)N(C(=O)c2cc4cc([C@H]5CCOC(C)(C)C5)ccc4n2[C@@]2(c4noc(=O)[nH]4)C[C@@H]2C)CC32CC=CC2)cc(C)c1F [Compound 172],≤ 20 nM
2,Cc1cc(-n2nc3c(c2-n2ccn(-c4ccc5c(cnn5C)c4F)c2=O)[C@H](C)N(C(=O)c2cc4cc(C5CCOCC5)ccc4n2C2(c4noc(=O)[nH]4)CC2)CC32CC2)cc(C)c1F [Compound 174],100 to 300 nM
3,Cc1cc(-n2nc3c(c2-n2ccn(-c4ccc5c(cnn5C)c4F)c2=O)[C@H](C)N(C(=O)c2cc4cc([C@H]5CCOC(C)(C)C5)ccc4n2[C@@]2(c4noc(=O)[nH]4)C[C@@H]2C)CC32CCCC2)cc(C)c1F [Compound 25],≤ 20 nM
4,"C[C@H]1c2c(nn(-c3ccc(F)c(C4CC4)c3)c2-n2ccn(-c3ccc4c(cnn4C)c3F)c2=O)C2(CC2)CN1C(=O)c1cc2cc(C3CCOC(C)(C)C3)ccn2c1C1(c2noc(=O)[nH]2)CC1 (single isomer, unassigned) [Compound 186-A]",> 300 nM
5,Cc1cc(-n2nc3c(c2-n2ccn(-c4ccc5nn(CC(F)(F)F)cc5c4F)c2=O)[C@H](C)N(C(=O)c2cc4cc([C@H]5CCOC(C)(C)C5)ccc4n2[C@@]2(c4noc(=O)[nH]4)C[C@@H]2C)CC32CC2)cc(C)c1F [Compound 224],20 to 100 nM
6,COC1CCC2(C1)CN(C(=O)c1cc3cc([C@H]4CCOC(C)(C)C4)ccc3n1[C@@]1(c3noc(=O)[nH]3)C[C@@H]1C)[C@@H](C)c1c2nn(-c2cc(C)c(F)c(C)c2)c1-n1ccn(-c2ccc3c(cnn3C)c2F)c1=O (stereo partly drawn) [Compound 210],≤ 20 nM
7,Cc1cc(-n2nc3c(c2-n2ccn(-c4ccc5c(cnn5C)c4F)c2=O)[C@H](C)N(C(=O)c2cc4cc([C@H]5CCOC(C)(C)C5)ccc4n2C2(c4noc(=O)[nH]4)CC2)CC32CC2)cc(C)c1F [Compound 169],≤ 20 nM
8,Cc1cc(-n2nc3c(c2-n2ccn(-c4ccc5c(cnn5C)c4F)c2=O)[C@H](C)N(C(=O)c2cc4cc([C@H]5CCOC(C)(C)C5)ccc4n2[C@@]2(c4noc(=O)[nH]4)C[C@@H]2C)CC32CCC(=O)C2)cc(C)c1F (stereo partly drawn) [Compound 208],≤ 20 nM
9,COC(=O)N1CCC2(CC1)CN(C(=O)c1cc3cc([C@H]4CCOC(C)(C)C4)ccc3n1[C@@]1(c3noc(=O)[nH]3)C[C@@H]1C)[C@@H](C)c1c2nn(-c2cc(C)c(F)c(C)c2)c1-n1ccn(-c2ccc3c(cnn3C)c2F)c1=O [Compound 159],≤ 20 nM
10,"Cc1cc(-n2nc3c(c2-n2ccn(-c4ccc5c(ccn5C)c4F)c2=O)[C@H](C)N(C(=O)c2cc4cc([C@H]5CCOC(C)(C)C5)ccc4n2[C@@]2(c4noc(=O)[nH]4)C[C@@H]2C)CC32CCCNC2)cc(C)c1F (single isomer, unassigned) [Compound 51-B]",≤ 20 nM
11,Cc1cc(-n2nc3c(c2-n2ccn(-c4ccc5c(cnn5C)c4F)c2=O)[C@H](C)N(C(=O)c2cc4cc([C@H]5CCOC(C)(C)C5)ccc4n2[C@@]2(c4noc(=O)[nH]4)C[C@@H]2C)CC32CC(F)C2)cc(C)c1F (stereo partly drawn) [Compound 182],≤ 20 nM
12,Cc1cc(-n2nc3c(c2-n2ccn(-c4ccc5c(cnn5C)c4F)c2=O)[C@H](C)N(C(=O)c2cc4cc([C@H]5CCOC(C)(C)C5)ccc4n2[C@@]2(c4noc(=O)[nH]4)C[C@@H]2C)CC32CC(OC(C)C)C2)cc(C)c1F (stereo partly drawn) [Compound 192],≤ 20 nM
13,Cc1cc(-n2nc3c(c2-n2ccn(-c4ccc5c(cnn5C)c4F)c2=O)[C@H](C)N(C(=O)c2cc4cc([C@H]5CCOC(C)(C)C5)ccc4n2[C@@]2(c4noc(=O)[nH]4)C[C@@H]2C)CC32CCC(F)C2)cc(C)c1F (stereo partly drawn) [Compound 211],≤ 20 nM
14,Cc1cc(-n2nc3c(c2-n2ccn(-c4ccc5c(cnn5C)c4F)c2=O)[C@H](C)N(C(=O)c2cc4cc([C@H]5CCOC(C)(C)C5)ccc4n2[C@@]2(c4noc(=O)[nH]4)C[C@@H]2C)CC32COC2)cc(C)c1F [Compound 21],≤ 20 nM
15,[2H]C([2H])([2H])OC1CC2(C1)CN(C(=O)c1cc3cc([C@H]4CCOC(C)(C)C4)ccc3n1[C@@]1(c3noc(=O)[nH]3)C[C@@H]1C)[C@@H](C)c1c2nn(-c2cc(C)c(F)c(C)c2)c1-n1ccn(-c2ccc3c(cnn3C)c2F)c1=O (stereo partly drawn) [Compound 207],≤ 20 nM
16,Cc1cc(-n2nc3c(c2-n2ccn(-c4ccc5c(cnn5C)c4F)c2=O)[C@H](C)N(C(=O)c2cc4cc([C@H]5CCOC(C)(C)C5)ccc4n2[C@@]2(c4noc(=O)[nH]4)C[C@@H]2C)CC32C=CCC2)cc(C)c1F (stereo partly drawn) [Compound 197],≤ 20 nM
17,CNC1CC2(C1)CN(C(=O)c1cc3cc([C@H]4CCOC(C)(C)C4)ccc3n1[C@@]1(c3noc(=O)[nH]3)C[C@@H]1C)[C@@H](C)c1c2nn(-c2cc(C)c(F)c(C)c2)c1-n1ccn(-c2ccc3c(cnn3C)c2F)c1=O (stereo partly drawn) [Compound 220],≤ 20 nM
18,Cc1cc(-n2nc3c(c2-n2ccn(-c4ccc5c(cnn5C)c4F)c2=O)[C@H](C)N(C(=O)c2cc4cc([C@H]5CCOC(C)(C)C5)ccc4n2[C@@]2(c4noc(=O)[nH]4)C[C@@H]2C)CC32C[C@@H]2C)cc(C)c1F (stereo partly drawn) [Compound 227],20 to 100 nM
19,Cc1cc(-n2nc3c(c2-n2ccn(-c4ccc5c(cnn5C)c4F)c2=O)[C@H](C)N(C(=O)c2cc4cc([C@H]5CCOC(C)(C)C5)ccc4n2[C@@]2(c4noc(=O)[nH]4)C[C@@H]2C)CC32CCC(F)(F)CC2)cc(C)c1F [Compound 200],20 to 100 nM
20,Cc1cc(-n2nc3c(c2-n2ccn(-c4ccc5c(cnn5C)c4F)c2=O)[C@H](C)N(C(=O)c2cc4cc([C@H]5CCOC(C)(C)C5)ccc4n2[C@@]2(c4noc(=O)[nH]4)C[C@@H]2C)CC32CC(OC(F)F)C2)cc(C)c1F (stereo partly drawn) [Compound 194],≤ 20 nM
21,CC(=O)N1CC2(C1)CN(C(=O)c1cc3cc([C@H]4CCOC(C)(C)C4)ccc3n1[C@@]1(c3noc(=O)[nH]3)C[C@@H]1C)[C@@H](C)c1c2nn(-c2cc(C)c(F)c(C)c2)c1-n1ccn(-c2ccc3c(cnn3C)c2F)c1=O [Compound 166],≤ 20 nM
22,Cc1cc(-n2nc3c(c2-n2ccn(-c4ccc5c(cnn5C)c4F)c2=O)[C@H](C)N(C(=O)c2cc4cc([C@H]5CCOC(C)(C)C5)ccc4n2[C@@]2(c4noc(=O)[nH]4)C[C@@H]2C)CC32CC(C)(O)C2)cc(C)c1F (stereo partly drawn) [Compound 179],≤ 20 nM
23,CC(=O)N1CCC2(CC1)CN(C(=O)c1cc3cc([C@H]4CCOC(C)(C)C4)ccc3n1[C@@]1(c3noc(=O)[nH]3)C[C@@H]1C)[C@@H](C)c1c2nn(-c2cc(C)c(F)c(C)c2)c1-n1ccn(-c2ccc3c(cnn3C)c2F)c1=O [Compound 91],≤ 20 nM
24,"Cc1cc(-n2nc3c(c2-n2ccn(-c4ccc5c(cnn5C)c4F)c2=O)[C@H](C)N(C(=O)c2cc4cc(C5CCOC(C)(C)C5)ccn4c2C2(c4noc(=O)[nH]4)CC2)CC32CC2)cc(C)c1F (single isomer, unassigned) [Compound 185-A]",> 300 nM
25,Cc1cc(-n2nc3c(c2-n2ccn(-c4ccc5c(cnn5C)c4F)c2=O)[C@H](C)N(C(=O)c2cc4cc([C@H]5CCOC(C)(C)C5)ccc4n2[C@@]2(c4noc(=O)[nH]4)C[C@@H]2C)CC32C[S+]([O-])C2)cc(C)c1F (stereo partly drawn) [Compound 190],≤ 20 nM
26,Cc1cc(-n2nc3c(c2-n2ccn(-c4ccc5c(cnn5C)c4F)c2=O)[C@H](C)N(C(=O)c2cc4cc([C@H]5CCOC(C)(C)C5)ccc4n2[C@@]2(c4noc(=O)[nH]4)C[C@@H]2C)CC32CC(O)C(O)C2)cc(C)c1F (stereo partly drawn) [Compound 213],≤ 20 nM
27,Cc1cc(-n2nc3c(c2-n2ccn(-c4ccc5c(cnn5C)c4F)c2=O)[C@H](C)N(C(=O)c2cc4cc([C@H]5CCOC(C)(C)C5)ccc4n2[C@@]2(c4noc(=O)[nH]4)C[C@@H]2C)CC32CN(C=O)C2)cc(C)c1F [Compound 165],≤ 20 nM
